{"source": "patent US12064507B2", "about": "“Composition and method for oral treatment of leukemia” (Provectus Pharmatech, Inc., priority 2019, dated 2024)", "key": {"[1]": {"test": "oral bioavailability, radiolabel studies with 14C-RB", "type": "in vivo", "settings": "14C-RB in aqueous solution given orally to mice", "description": "The bioavailability of various HX compounds such as disodium rose bengal has not been well characterized. Studies commissioned by one of the assignees concluded that bioavailability of disodium rose bengal is less than (<) 1% based on radiolabel studies where ^14C-RB in aqueous solution was given orally to mice. In the stomach, with a pH value<4, an HX compound is likely to be in the lactone form."}, "[2]": {"test": "solubility and behaviour of HX compound forms in aqueous media", "type": "physicochemical", "settings": "solutions of disodium RB mixed in", "description": "The dibasic salt forms of the HX compounds exist in solution having a pH greater than approximately 5, whereas at pH values<5 the HX compounds spontaneously convert to their lactone form. […] Thus, optimizing formulation to properly compensate for the pH value of the GI tract is perhaps the most important parameter affecting bioavailability. For example, in the stomach, where pH value<4, dissolved HX compound is rapidly converted to the insoluble lactone form.\nFor example, the highly acidic gastric environment (pH 1.5-2 in the fasted state; pH 3-6 in the fed state) rises rapidly to about pH 6 in the duodenum and increases along the small intestine to pH 7.4 at the terminal ileum. The pH value in the cecum drops just below pH 6 and again rises in the colon reaching pH 6.7 at the rectum [Hua, Front Pharmacol 11:Article 524 (April 2020)]."}, "[3]": {"test": "oral bioavailability, mass balance studies", "type": "in vivo", "settings": "aqueous solution, estimated from mass balance studies", "protocol": "Bioavailability of RB disodium administered in aqueous solution via the oral route appears to be limited based on mass balance studies conducted by the inventors, and can be estimated at 0.1-1 percent, corresponding to a daily systemic exposure of 0.2-2 mg/kg. Presuming this amount is distributed through the bloodstream, and that blood volume comprises approximately 10 percent of body weight, this equates to an estimated concentration of 2-20 μM RB in the blood."}, "[4]": {"test_system": "SEM cells (human ALL cells labelled with GFP)", "test": "survival of CB17 SCID mice with SEM leukemia xenograft, oral treatment", "type": "in vivo", "settings": "for survival / therapeutic activity in words: oral gavage twice weekly for two weeks, FIG. 1", "protocol": "FIG. 1 is a graph showing survival of CB17 SCID mice from Charles River Laboratories International, Inc., treated with orally-administered rose bengal disodium. Exponentially-growing SEM cells (2.5×10^6 human ALL cells labelled with GFP) were injected intravenously into each animal and the establishment of tumors was monitored. After 4 weeks to permit the growth of the tumor, mice were randomized to three groups. Group 1 (n=9 control animals) received 100 μL of PBS given orally twice a week for two weeks. Group 2 (n=8 treatment Cohort I animals) received 25 μL of rose bengal disodium present at 10% w/v in 0.9% NaCl aqueous solution that was diluted in PBS to a final volume of 100 μL and given orally twice a week for 2 weeks. Group 3 (n=8 treatment Cohort II animals) received 12.5 μL of the above 10% w/v in 0.9% NaCl aqueous solution that was diluted in PBS to a final volume of 100 μL and administered orally twice a week for 2 weeks. […] Data are presented as Kaplan-Meier estimates.\nFemale C17 SCID mice from Charles River\nThe SEM cell line was initially established from a 5 year old female with B acute lymphoblastic leukemia. It carries the MLL-AFFF1 gene fusion and heterozygous for CDKN2A and TP53.\n2.5×10^6 exponentially growing SEM cells [labelled with green fluorescent protein (GFP)] were injected intravenously into each animal and the establishment of tumors was monitored. After 4 weeks to permit the growth of the tumors, mice were randomized to three groups.\nThese animals received 100 μL of PBS given orally twice a week for two weeks.\nThese animals received 25 μL of PV-10® (10% rose bengal disodium w/v in 0.9 percent in aqueous saline) diluted in PBS to a final volume of 100 μL and given orally by gavage twice a week for 2 weeks.\nThese animals received 12.5 μL of PV-10® (as discussed above) diluted in PBS to a final volume of 100 μL and given orally by gavage twice a week for 2 weeks.\nData are presented in FIG. 1 as Kaplan-Meier estimates."}, "[5]": {"settings": "cited from earlier work"}, "[6]": {"settings": "fed ad libitum continuously for 2 years, C57BL6N mice; cited from earlier work"}, "[7]": {"test_system": "pediatric solid tumors (neuroblastoma and neuroepithelioma)", "settings": "in vitro contact for 96 hours; cited from earlier work"}, "[8]": {"test_system": "Apc^Min colorectal tumor model", "type": "in vivo, mice", "protocol": "26, 2021. […] Presuming a daily drinking water consumption rate of approximately 2 mL/10 g body weight, this corresponds to consumption of approximately 2 mg RB/10 g (200 mg/kg).\nThose Apc^min mice are understood to have thereby consumed approximately 8 mg/10 g/day=800 mg/kg/day. That amount is consistent with toxicology data showing such a dose is tolerated."}, "[9]": {"settings": "clearance from circulation; cited from earlier work"}, "[10]": {"test": "tolerated dose in clinical studies of PV-10", "type": "in vivo, human", "protocol": "The classic intravenous (IV) diagnostic assay for liver function using RB was conducted giving 100 mg RB as a single IV dose. In clinical studies of PV-10® aqueous RB disodium solution, RB has been tolerated at 1500 mg delivered IV. The standard adult blood volume is approximately 5 L. Thus, to achieve 100 mg/L in the blood, an adult patient would need to receive approximately 500 mg of RB IV to achieve the IC50 value in the bloodstream.\nIn clinical studies of PV-10® aqueous RB disodium solution, RB has been tolerated at 1500 mg delivered IL."}, "[11]": {"settings": "112 mg bolus, 60 kg adult human, 1.9 mg/kg; cited from earlier work"}, "[12]": {"test_system": "solid tumors (e.g., melanoma, hepatocellular carcinoma, breast carcinoma)", "settings": "intralesional, intratumoral RB about 25-50 mg/g tumor tissue (25-50 mM); cited from earlier work"}, "[13]": {"test_system": "several cancer cell lines", "settings": "cited from earlier work"}, "[14]": {"settings": "nude mice; cited from earlier work"}, "[15]": {"settings": "human, in vivo; cited from earlier work"}, "[16]": {"settings": "symptomatic mice, 1 mg/mL ad libitum in drinking water"}}, "note": "Like-named read-outs stand apart in the source and are kept apart here. Where a SMILES comes first, the peptide text is derived from it. [ ]: non-standard residue; d: D form. The star is where a group is joined. Dolaproine = CO[C@@H]([C@@H]1CCCN1)[C@@H](C)C(=O)O; Dil = CC[C@H](C)[C@H](NC)[C@@H](CC(=O)O)OC; X1 = C[C@@H](N*)[C@@H](O)c1ccccc1; NMeV = CN[C@H](C(=O)O)C(C)C", "data": [{"molecule": "O=C([O-])c1c(Cl)c(Cl)c(Cl)c(Cl)c1-c1c2cc(I)c(=O)c(I)c-2oc2c(I)c([O-])c(I)cc12.[Na+].[Na+]", "note": "[RB disodium, 4,5,6,7-tetrachloro-2′,4′,5′,7′-tetraiodofluorescein disodium]", "values": [{"measurement": "bioavailability", "setting": "[1]", "result": "< 1", "unit": "%"}, {"measurement": "behaviour in water solution having the pH value of the human stomach", "setting": "[2]", "result": "rapid clouding of the admixture and clumping"}, {"measurement": "bioavailability via the oral route", "setting": "[3]", "result": "0.1-1%"}, {"measurement": "survival of mice treated with lesser amounts", "setting": "[4]; lesser amounts of HX compound (Cohort II, 12.5 μL PV-10), compared with the 62.5% group", "result": "much poorer survival rates"}, {"measurement": "treated leukemic mice that survived for 120 days", "setting": "[4]; oral gavage twice a week for 2 weeks, higher-dose group (Cohort I, 25 μL PV-10)", "result": 62.5, "unit": "%"}, {"measurement": "survival / therapeutic activity in words", "setting": "[4]; two treatment groups", "result": "dose-dependent survival"}]}, {"molecule": "O=C1OC2(c3cc(I)c(O)c(I)c3Oc3c2cc(I)c(O)c3I)c2c(Cl)c(Cl)c(Cl)c(Cl)c21", "note": "[RB, 4,5,6,7-tetrachloro-2′,4′,5′,7′-tetraiodofluorescein]", "values": [{"measurement": "pKa value", "setting": "[5]", "result": 2.52}, {"measurement": "pKa value", "setting": "[5]; second value", "result": 1.81}, {"measurement": "dose well tolerated", "setting": "[6]", "result": 970, "unit": "mg/kg/day"}, {"measurement": "concentrations demonstrating cytotoxicity", "setting": "[7]", "result": "50 to 100", "unit": "µM"}, {"measurement": "effect on onset of disease", "setting": "[8]; 4 mg/mL ad libitum in drinking water (about 800 mg/kg/day)", "result": "arrested onset of disease"}, {"measurement": "estimated concentration of RB in the blood", "setting": "[8]; mouse, in vivo", "result": "2 to 20", "unit": "µM"}, {"measurement": "increase in mean survival relative to untreated mice", "setting": "[8]; [16]", "result": "~38", "unit": "%"}, {"measurement": "mean survival", "setting": "[8]; [16]", "result": "12.3±0.5", "unit": "weeks"}, {"measurement": "circulatory half-time (t1/2)", "setting": "[9]", "result": "about 30 minutes"}, {"measurement": "dose tolerated", "setting": "[10]; delivered IL", "result": 1500, "unit": "mg"}, {"measurement": "dose tolerated", "setting": "[10]; delivered IV", "result": 1500, "unit": "mg"}, {"measurement": "estimated RB in the blood", "setting": "[4]; assuming 1% bioavailability, intestinal transit 6 hours, blood volume 10 percent of body weight, two treatment groups", "result": "125 to 250", "unit": "µM"}, {"measurement": "survival / therapeutic activity in words", "setting": "[4]; two treatment groups", "result": "therapeutic activity was observed"}, {"measurement": "morbidity after IV bolus", "setting": "[11]", "result": "not reported to yield morbidity"}, {"measurement": "time until acute tumor cytotoxicity is evident", "setting": "[12]", "result": "≤ 30", "unit": "min"}]}, {"molecule": "CC[C@H](C)[C@@H]([C@@H](CC(=O)N1CCC[C@H]1[C@H](OC)[C@@H](C)C(=O)N[C@H](C)[C@@H](O)c1ccccc1)OC)N(C)C(=O)[C@@H](NC(=O)[C@@H](NC)C(C)C)C(C)C", "note": "[monomethyl auristatin] (H-[NMeV]V[Dil][Dolaproine]-X1)", "values": [{"measurement": "IC50", "setting": "[13]", "result": "< 1", "unit": "nM"}]}, {"molecule": "Calicheamicin", "values": [{"measurement": "LD50", "setting": "[14]", "result": 0.32, "unit": "mg/kg"}]}, {"molecule": "ipilimumab: anti-CTLA-4 monoclonal antibody, immune checkpoint inhibitor", "values": [{"measurement": "terminal t1/2", "setting": "[15]", "result": 15.4, "unit": "days"}]}]}
